IC50 data for 55 compounds are collected here from patent publication US8962609B2, “Pyrimidine compounds as inhibitors of protein kinases IKK epsilon and/or TBK-1, processes for their preparation, and pharmaceutical compositions containing them” (Domainex Limited, priority 2010, dated 2015).

In one test the target is TBK-1 (Homo sapiens (Human), UniProt Q9UHD2). In words: biochemical. Conditions: 20 μM ATP (apparent Km), 8 nM kinase, 2.5 hr; values are activity bands; read-out: Inhibition of TBK-1 IC50. The protocol:
(§1) Compounds of the invention (synthesised as described below) were tested for activity against the IKKε and TBK-1 enzyme as follows:
(§2) Inhibitions studies were performed using a time-resolved fluorescence-based Lanthascreen™ assay. Phosphorylation of a fluorescein-labelled substrate peptide is measured using terbium-labeled phosphospecific antibodies. Terbium is excited at 340 nm and the FRET energy transfer to fluorescein is measured at 495 and 520 nm. The emission ratio between 520 and 495 is a measure of the level of phosphorylation of the substrate by the kinase.
(§3) Kinase inhibition assays (10 μL) were performed at 20° C. in 384-well plate format. Compound IC50 values were determined at the apparent Km for ATP (20 μM) based on a radiometric assay (Invitrogen) using 8 or 10 point curves in duplicate. The final reaction conditions contained 400 nM fluorescein-IkBα substrate ([…]), 20 μM ATP, 2 nM or 8 nM IKKε or TBK1 kinase respectively, and 3% DMSO in kinase assay buffer consisting of 50 mM HEPES (pH 7.5), 10 mM MgCl, 1 mM EGTA, 0.01% Brij-35.
(§4) Compound dilutions were prepared from 10 mM DMSO stocks by dilution into DMSO.
(§5) The kinase phosphorylation assay was initiated by the addition of the kinase and the reaction was allowed to proceed for 1 hr or 2.5 hr for IKKε and TBK-1 kinase respectively. […] The reaction was stopped by the addition of 10 mM EDTA, and phosphorylation was detected after a 1 hr incubation with 1.5 nM terbium-labelled antibody against phosphorylation at Serine 32 on the IkBα[…]peptide, both in TR-FRET dilution buffer (Invitrogen).
(§6) In the data presented for IKKε, <9 μM means having an activity in the range from 300 nM≦9 μM; and <300 nM means having an activity in the range 30 nM≦300 nM; and for the data presented for TBK-1, <3 μM means having an activity in the range 300 nM≦3 μM, and <300 nM means having an activity in the range 30 nM≦300 nM.

In a further test the target is IKKε (Homo sapiens (Human), UniProt Q14164). In words: IKKε time-resolved fluorescence Lanthascreen kinase inhibition assay. It is filed as biochemical. Conditions: 20 μM ATP (apparent Km), 2 nM kinase, 1 hr; values are activity bands; read-out: Inhibition of IKKε IC50. The protocol: as §1, §2, §3, §4, §5, §6
Chain of IKKε (Q14164 whole entry): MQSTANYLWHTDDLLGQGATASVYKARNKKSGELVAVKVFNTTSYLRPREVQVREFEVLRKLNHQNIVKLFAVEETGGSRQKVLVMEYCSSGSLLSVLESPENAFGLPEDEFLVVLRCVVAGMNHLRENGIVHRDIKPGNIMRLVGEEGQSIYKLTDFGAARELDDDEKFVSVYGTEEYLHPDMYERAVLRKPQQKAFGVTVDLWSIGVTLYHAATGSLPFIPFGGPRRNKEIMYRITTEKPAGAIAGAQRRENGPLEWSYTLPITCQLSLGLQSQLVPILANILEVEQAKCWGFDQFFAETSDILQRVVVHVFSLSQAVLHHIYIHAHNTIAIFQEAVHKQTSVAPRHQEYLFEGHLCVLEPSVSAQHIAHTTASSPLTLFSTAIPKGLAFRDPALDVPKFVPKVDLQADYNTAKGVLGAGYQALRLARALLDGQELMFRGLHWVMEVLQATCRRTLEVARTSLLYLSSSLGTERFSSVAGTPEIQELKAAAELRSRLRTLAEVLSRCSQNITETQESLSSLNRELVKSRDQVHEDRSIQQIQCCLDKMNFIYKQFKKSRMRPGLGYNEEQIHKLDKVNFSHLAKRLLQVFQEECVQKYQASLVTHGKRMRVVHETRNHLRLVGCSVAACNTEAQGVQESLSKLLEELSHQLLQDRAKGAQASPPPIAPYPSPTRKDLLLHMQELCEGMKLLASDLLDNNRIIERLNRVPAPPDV
A general note: In TR-FRET formats the signal depends on donor and acceptor labels being close together.

Structures are written as SMILES.

Chain of TBK-1 (Q9UHD2 whole entry): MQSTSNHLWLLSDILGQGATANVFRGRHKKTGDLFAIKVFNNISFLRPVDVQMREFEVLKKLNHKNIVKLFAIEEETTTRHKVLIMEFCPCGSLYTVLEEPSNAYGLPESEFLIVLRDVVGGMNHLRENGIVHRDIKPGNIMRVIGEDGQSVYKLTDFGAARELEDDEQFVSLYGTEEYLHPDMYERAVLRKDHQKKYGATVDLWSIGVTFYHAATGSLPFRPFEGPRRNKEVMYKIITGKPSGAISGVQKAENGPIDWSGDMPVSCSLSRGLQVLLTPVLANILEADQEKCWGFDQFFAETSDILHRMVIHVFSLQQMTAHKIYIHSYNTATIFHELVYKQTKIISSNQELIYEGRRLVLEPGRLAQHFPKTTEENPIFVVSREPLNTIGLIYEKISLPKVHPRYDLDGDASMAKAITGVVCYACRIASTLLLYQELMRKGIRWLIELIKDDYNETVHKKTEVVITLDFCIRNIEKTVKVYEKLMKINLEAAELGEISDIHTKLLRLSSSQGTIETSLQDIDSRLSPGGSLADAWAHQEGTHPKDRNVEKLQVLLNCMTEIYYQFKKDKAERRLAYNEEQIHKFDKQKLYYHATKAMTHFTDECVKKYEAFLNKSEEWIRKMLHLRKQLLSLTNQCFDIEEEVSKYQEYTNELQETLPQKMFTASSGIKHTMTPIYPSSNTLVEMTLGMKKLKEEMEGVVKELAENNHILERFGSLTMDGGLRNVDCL

On to `CN1CCC(Nc2ccc(Nc3nccc(-c4ccc(N5CCC(F)(F)C5)c(C#N)c4)n3)cn2)CC1` [DMX-80], for which the half-maximal inhibitory concentration (IC50) on TBK-1 and on IKKε was below 0.03 µM each time. Take `CNC(=O)[C@H]1CCCN1c1ccc(-c2ccnc(Nc3ccc(NC(C)=O)nc3)n2)cc1C#N` [DMX-67]: the IC50 at TBK-1 is below 9 µM; on IKKε, 0.3 to 9 µM. With `CN1CCN(C(=O)c2cccc(Nc3nccc(-c4ccc(N5CCCC5)c(C#N)c4)n3)c2)CC1` [DMX-43], at IKKε, the IC50 is below 0.03 µM. With `Cn1cncc1Nc1nccc(-c2ccc(N3CCCC3)c(C#N)c2)n1` [DMX-60], the half-inhibitory concentration (IC50) at TBK-1 and on IKKε was 0.03 to 0.3 µM each time.

With `COC[C@H]1CCCN1c1ccc(-c2ccnc(Nc3ccc(NC(C)=O)nc3)n2)cc1C#N` [DMX-71], the half-maximal inhibitory concentration (IC50) on TBK-1 and on IKKε was below 0.03 µM in each case. As for `CN(C)CC(=O)Nc1ccc(Nc2nccc(-c3ccc(N4CCCC4)c(C#N)c3)n2)cn1` [DMX-49], the IC50 on TBK-1 and on IKKε was below 0.03 µM throughout. In the case of `CS(=O)(=O)c1cccc(Nc2nccc(-c3ccc(N4CCCC4)c(C#N)c3)n2)c1` [DMX-10], the IC50 on TBK-1 and at IKKε was below 0.03 µM throughout.

For the compound `CN1CCC(NC(=O)c2cccc(Nc3nccc(-c4ccc(N5CCCC5)c(C#N)c4)n3)c2)CC1` [DMX-44], the IC50 on IKKε was below 0.03 µM. In the case of `Cn1ccc(Nc2nccc(-c3ccc(N4CCCC4)c(C#N)c3)n2)n1` [DMX-29], the half-inhibitory concentration (IC50) on TBK-1 and on IKKε was 0.03 to 0.3 µM each time. As to `CC(=O)Nc1ccc(Nc2nccc(-c3ccc(N4CCOCC4)c(C#N)c3)n2)cn1` [DMX-46], the results for the IC50 at TBK-1 and at IKKε were below 0.03 µM and 0.03 to 0.3 µM, respectively.

For the compound `CN(C)CCNC(=O)c1cccc(Nc2nccc(-c3ccc(N4CCCC4)c(C#N)c3)n2)c1` [DMX-45], the IC50 at IKKε was below 0.03 µM. `COc1ccc(Nc2nccc(-c3ccc(N4CCCC4)c(C#N)c3)n2)cn1` [DMX-58]: the half-inhibitory concentration (IC50) at TBK-1 and at IKKε was below 0.03 µM each time.

For the compound `COc1ccc(Nc2nccc(-c3ccc(N4CCCC4)c(C#N)c3)n2)cc1` [DMX-6], the concentration for half-maximal inhibition (IC50) at IKKε was below 0.03 µM. `N#Cc1cc(-c2ccnc(Nc3cccnc3)n2)ccc1N1CCCC1` [DMX-18]: the IC50 at IKKε is below 0.03 µM.

On to `COc1cccc(Nc2nccc(-c3ccc(N4CCCC4)c(C#N)c3)n2)c1` [DMX-5], for which, at IKKε, the IC50 is below 0.03 µM. Still for that read-out and setting: the same measure for `Cc1cc(Nc2nccc(-c3ccc(N4CCCC4)c(C#N)c3)n2)no1` [DMX-25]: 0.3 to 9 µM. In the case of `CN(C)CCNc1ccc(Nc2nccc(-c3ccc(N4CC[C@H](O)C4)c(C#N)c3)n2)cn1` [DMX-62], the IC50 on TBK-1 and on IKKε was below 0.03 µM throughout. With `CN1CCC(Nc2ccc(Nc3nccc(-c4ccc(N5CC[C@H](F)C5)c(C#N)c4)n3)cn2)CC1` [DMX-78], the half-maximal inhibitory concentration (IC50) at TBK-1 and on IKKε was below 0.03 µM throughout. Take `CN1CCC(Nc2ccc(Nc3nccc(-c4ccc(N5CC[C@H](O)C5)c(C#N)c4)n3)cn2)CC1` [DMX-79]: the 50% inhibitory concentration (IC50) on TBK-1 and on IKKε was below 0.03 µM throughout. As to `Cc1cnc(Nc2nccc(-c3ccc(N4CCCC4)c(C#N)c3)n2)s1` [DMX-30], at IKKε, the IC50 is 0.3 to 9 µM. Consider `CN(C)CCNc1ccc(Nc2nccc(-c3ccc(N4CCC(C(N)=O)CC4)c(C#N)c3)n2)cn1` [DMX-64], for which the IC50 was 0.03 to 0.3 µM at TBK-1 and below 0.03 µM on IKKε. On to `CN1CCN(c2ccc(Nc3nccc(-c4ccc(N5CCC[C@@H]5C(N)=O)c(C#N)c4)n3)cn2)CC1` [DMX-55], for which the concentration for half-maximal inhibition (IC50) at TBK-1 and at IKKε was below 0.03 µM throughout. Consider `CC(=O)Nc1ccc(Nc2nccc(-c3ccc(N4CCN(C)CC4)c(C#N)c3)n2)cn1` [DMX-47], for which the concentration for half-maximal inhibition (IC50) on TBK-1 and at IKKε was 0.03 to 0.3 µM in each case. With `CC(=O)Nc1ccc(Nc2nccc(-c3ccc(N4CC[C@H](O)C4)c(C#N)c3)n2)cn1` [DMX-48], the half-maximal inhibitory concentration (IC50) at TBK-1 and at IKKε was below 0.03 µM in each case. As for `CN(C)CCNc1ccc(Nc2nccc(-c3ccc(N4CCC(O)CC4)c(C#N)c3)n2)cn1` [DMX-65], the IC50 at TBK-1 and at IKKε was 0.03 to 0.3 µM throughout. Consider `Cn1cnc(Nc2nccc(-c3ccc(N4CCCC4)c(C#N)c3)n2)c1` [DMX-57], for which the IC50 at TBK-1 and at IKKε was 0.03 to 0.3 µM in each case. With `N#Cc1cc(-c2ccnc(Nc3ccn(CC(N)=O)n3)n2)ccc1N1CCCC1` [DMX-59], the IC50 on TBK-1 and on IKKε was 0.03 to 0.3 µM throughout. `Cn1nc(Nc2nccc(-c3ccc(N4CCCC4)c(C#N)c3)n2)cc1C(N)=O` [DMX-40]: the half-maximal inhibitory concentration (IC50) at IKKε fell in the range of 0.03 to 0.3 µM. Take `Cn1nccc1Nc1nccc(-c2ccc(N3CC[C@H](O)C3)c(C#N)c2)n1` [DMX-52]: the half-maximal inhibitory concentration (IC50) on TBK-1 and on IKKε was 0.03 to 0.3 µM each time. Turning to `N#Cc1cc(-c2ccnc(Nc3cccc(C(=O)O)c3)n2)ccc1N1CCCC1` [DMX-42], the IC50 at IKKε is below 0.03 µM. With `CC(=O)Nc1ccc(Nc2nccc(-c3ccc(N4CCC[C@H]4C(N)=O)c(C#N)c3)n2)cn1` [DMX-70], the concentration for half-maximal inhibition (IC50) at TBK-1 and on IKKε was 0.03 to 0.3 µM throughout. For `CN(C)CCOc1ccc(Nc2nccc(-c3ccc(N4CCCC4)c(C#N)c3)n2)cn1` [DMX-61], the concentration for half-maximal inhibition (IC50) at TBK-1 and at IKKε was below 0.03 µM in each case. Turning to `N#Cc1cc(-c2ccnc(Nc3ccc4c(c3)NC(=O)CC4)n2)ccc1N1CCCC1` [DMX-17], the IC50 at TBK-1 and at IKKε was below 0.03 µM each time.

As to `Cn1cc(Nc2nccc(-c3ccc(N4CC[C@H](O)C4)c(C#N)c3)n2)cn1` [DMX-74], the IC50 on TBK-1 and at IKKε was below 0.03 µM throughout.

As for `Cn1nc(C(N)=O)cc1Nc1nccc(-c2ccc(N3CCCC3)c(C#N)c2)n1` [DMX-41], the IC50 on IKKε was 0.03 to 0.3 µM. Same read-out and setting: the same measure for `N#Cc1cc(-c2ccnc(Nc3cccc(F)c3)n2)ccc1N1CCCC1` [DMX-3]: 0.03 to 0.3 µM. In the case of `CC(=O)Nc1ccc(Nc2nccc(-c3ccc(N4CC[C@@H](O)C4)c(C#N)c3)n2)cn1` [DMX-73], the IC50 at TBK-1 and at IKKε was below 0.03 µM each time. `CC(=O)Nc1ccc(Nc2nccc(-c3ccc(N4CCC(C(N)=O)CC4)c(C#N)c3)n2)cn1` [DMX-50, 1-{4-[2-(6-Acetylamino-pyridin-3-ylamino)-pyrimidin-4-yl]-2-cyano-phenyl}-piperidine-4-carboxylic acid amide]: the half-maximal inhibitory concentration (IC50) on TBK-1 was 0.03 to 0.3 µM; at IKKε, below 0.03 µM. On the same counts, the results for `CC(=O)Nc1cccc(Nc2nccc(-c3ccc(N4CCCC4)c(C#N)c3)n2)c1` [DMX-7] are below 0.03 µM and below 0.03 µM. Consider `Cn1nccc1Nc1nccc(-c2ccc(N3CCCC3)c(C#N)c2)n1` [DMX-27], for which the IC50 on TBK-1 is below 0.03 µM; on IKKε it was 0.03 to 0.3 µM. On the same counts, the results for `CN1CCN(c2ccc(Nc3nccc(-c4ccc(N5CCCC5)c(C#N)c4)n3)cn2)CC1` [DMX-19] are below 0.03 µM and below 0.03 µM. Consider `CC(=O)N(C)c1ccc(Nc2nccc(-c3ccc(N4CCCC4)c(C#N)c3)n2)cc1` [DMX-37], for which the IC50 on TBK-1 and at IKKε was below 0.03 µM in each case. In the case of `CN(C)CCNc1ccc(Nc2nccc(-c3ccc(N4CCCC4)c(C#N)c3)n2)cn1` [DMX-33], the half-maximal inhibitory concentration (IC50) on TBK-1 and at IKKε was below 0.03 µM each time. As to `CN(C)CCNc1ccc(Nc2nccc(-c3ccc(N4CCC[C@@H]4C(N)=O)c(C#N)c3)n2)cn1` [DMX-72], the IC50 at TBK-1 and on IKKε was 0.03 to 0.3 µM throughout. Consider `N#Cc1cc(-c2ccnc(Nc3ccncc3)n2)ccc1N1CCCC1` [DMX-12], for which the IC50 on IKKε was in the range of 0.3 to 9 µM. The same measure, in the same setting: to `N#Cc1cc(-c2ccnc(Nc3cccc(C(F)(F)F)c3)n2)ccc1N1CCCC1` [DMX-2] belongs 0.3 to 9 µM. In the case of `CC(=O)Nc1ccc(Nc2nccc(-c3ccc(N4CCC[C@@H]4C(N)=O)c(C#N)c3)n2)cn1` [DMX-51], the concentration for half-maximal inhibition (IC50) on TBK-1 and on IKKε was 0.03 to 0.3 µM in each case.

Take `CN(C)CCN(C)c1ccc(Nc2nccc(-c3ccc(N4CCCC4)c(C#N)c3)n2)cn1` [DMX-34]: the IC50 at TBK-1 and on IKKε was below 0.03 µM each time. Consider `N#Cc1cc(-c2ccnc(Nc3ccccn3)n2)ccc1N1CCCC1` [DMX-13], for which the IC50 on IKKε was 0.3 to 9 µM. For the compound `Cc1csc(Nc2nccc(-c3ccc(N4CCCC4)c(C#N)c3)n2)n1` [DMX-32], the half-maximal inhibitory concentration (IC50) on IKKε was in the range of 0.3 to 9 µM. The same measure, in the same setting: the same measure for `N#Cc1cc(-c2ccnc(Nc3ncc(C(N)=O)o3)n2)ccc1N1CCCC1` [DMX-38]: 0.3 to 9 µM; for `N#Cc1cc(-c2ccnc(Nc3ccccc3)n2)ccc1N1CCCC1` [DMX-11]: 0.3 to 9 µM. On the same count and under the same terms, to `N#Cc1cc(-c2ccnc(Nc3nc(C(N)=O)co3)n2)ccc1N1CCCC1` [DMX-39] belongs 0.3 to 9 µM. Consider `CNC(=O)C1CCN(c2ccc(-c3ccnc(Nc4ccc(NC(C)=O)nc4)n3)cc2C#N)CC1` [DMX-68], for which the IC50 at TBK-1 and on IKKε was 0.03 to 0.3 µM throughout. Consider `N#Cc1cc(-c2ccnc(Nc3ccc(F)cc3)n2)ccc1N1CCCC1` [DMX-4], for which, on IKKε, the IC50 lay in the range of 0.03 to 0.3 µM.

Usually IC50 stands for the concentration that inhibits the measured activity by half.
